Patent US20250228239A1, “MOLECULES HAVING PESTICIDAL UTILITY, AND INTERMEDIATES, COMPOSITIONS, AND PROCESSES, RELATED THERETO” (priority 2024, published 2025)

Legend:
[1] = test system: Cabbage Looper (Trichoplusia ni, TRIPNI); assay: Bioassays on Cabbage Looper (CL), 128-well diet tray assay; format: in vivo; conditions: Trichoplusia ni; Cabbage Looper; rating class; read-out: CL
Procedure, shortened: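 One to five second-instar larvae per well on artificial diet surface-treated with 50 μg/cm^2 test molecule (applied in 90:10 acetone-water, dried). Held 5–7 days at 25° C, 14:10 light-dark; percent mortality recorded per well and averaged over eight wells.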

[2] = test system: Beet Armyworm (Spodoptera exigua, LAPHEG); assay: Bioassays on Beet Armyworm (BAW), 128-well diet tray assay; format: in vivo; conditions: Spodoptera exigua; Beet Armyworm; rating class; read-out: BAW
Procedure, shortened: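 Percent larval mortality, averaged across eight wells, scored after five to seven days at 25° C. under 14:10 light-dark. Each well held one to five second instars feeding on diet dosed at 50 μg/cm^2 with compound from 90:10 acetone-water, solvent dried off.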

SMILES | pest or weed control at 50 µg/cm2 [1] | pest or weed control at 50 µg/cm2 [2]
CC(=O)Nc1ccc(F)c(NC(=O)c2cc(NC(=O)[C@H]3[C@H](c4ccc(F)c(C(F)(F)F)c4)C3(Cl)Cl)cc(F)c2F)c1F [F1576, N-(3-Acetamido-2,6-difluorophenyl)-5-((1R,3R)-2,2-dichloro-3-(4-fluoro-3-(trifluoromethyl)phenyl)cyclopropane-1-carboxamido)-2,3-difluorobenzamide] | 50 to 100% | 50 to 100%
O=C(Nc1c(F)ccc(NC(=O)C(F)F)c1F)c1cc(NC(=O)[C@H]2[C@H](c3ccc(Cl)c(Cl)c3)C2(Cl)Cl)cc(F)c1F [F1577, 5-((1R,3R)-2,2-Dichloro-3-(3,4-dichlorophenyl)cyclopropane-1-carboxamido)-N-(3-(2,2-difluoroacetamido)-2,6-difluorophenyl)-2,3-difluorobenzamide] | 50 to 100% | 50 to 100%
O=C(Nc1c(F)ccc(NC(=O)C(F)(F)F)c1F)c1cc(NC(=O)[C@H]2[C@H](c3ccc(Cl)c(Cl)c3)C2(Cl)Cl)cc(F)c1F [F1578, 5-((1R,3R)-2,2-Dichloro-3-(3,4-dichlorophenyl)cyclopropane-1-carboxamido)-N-(2,6-difluoro-3-(2,2,2-trifluoroacetamido)phenyl)-2,3-difluorobenzamide] | 50 to 100% | 50 to 100%
O=C(Nc1cc(NC(=O)C(F)(F)F)c(F)cc1F)c1cc(NC(=O)[C@H]2[C@H](c3cc(Cl)c(Cl)c(Cl)c3)C2(Cl)Cl)cc(F)c1F [F1579, 5-((1R,3R)-2,2-Dichloro-3-(3,4,5-trichlorophenyl)cyclopropane-1-carboxamido)-N-(2,4-difluoro-5-(2,2,2-trifluoroacetamido)phenyl)-2,3-difluorobenzamide] | 50 to 100% | 50 to 100%
O=C(Nc1cc(NC(=O)C(F)F)c(F)cc1F)c1cc(NC(=O)[C@H]2[C@H](c3cc(Cl)c(Cl)c(Cl)c3)C2(Cl)Cl)cc(F)c1F [F1580, 5-((1R,3R)-2,2-Dichloro-3-(3,4,5-trichlorophenyl)cyclopropane-1-carboxamido)-N-(5-(2,2-difluoroacetamido)-2,4-difluorophenyl)-2,3-difluorobenzamide] | 50 to 100% | 50 to 100%
CC(=O)Nc1cc(NC(=O)c2cc(NC(=O)[C@H]3[C@H](c4cc(Cl)c(Cl)c(Cl)c4)C3(Cl)Cl)cc(F)c2F)c(F)cc1F [F1581, N-(5-Acetamido-2,4-difluorophenyl)-5-((1R,3R)-2,2-dichloro-3-(3,4,5-trichlorophenyl)cyclopropane-1-carboxamido)-2,3-difluorobenzamide] | 50 to 100% | 50 to 100%
O=C(Nc1cc(NC(=O)C(F)(F)F)c(F)cc1F)c1cc(NC(=O)[C@H]2[C@H](c3ccc(Cl)c(Cl)c3)C2(Cl)Cl)cc(F)c1F [F1582, 5-((1R,3R)-2,2-Dichloro-3-(3,4-dichlorophenyl)cyclopropane-1-carboxamido)-N-(2,4-difluoro-5-(2,2,2-trifluoroacetamido)phenyl)-2,3-difluorobenzamide] | 50 to 100% | 50 to 100%
O=C(Nc1cc(NC(=O)C(F)F)c(F)cc1F)c1cc(NC(=O)[C@H]2[C@H](c3ccc(Cl)c(Cl)c3)C2(Cl)Cl)cc(F)c1F [F1583, 5-((1R,3R)-2,2-Dichloro-3-(3,4-dichlorophenyl)cyclopropane-1-carboxamido)-N-(5-(2,2-difluoroacetamido)-2,4-difluorophenyl)-2,3-difluorobenzamide] | 50 to 100% | 50 to 100%
O=C(Nc1cc(NC(=O)C(F)(F)F)c(F)cc1F)c1cc(NC(=O)[C@H]2[C@H](c3ccc(F)c(C(F)(F)F)c3)C2(Cl)Cl)cc(F)c1F [F1584, 5-((1R,3R)-2,2-Dichloro-3-(4-fluoro-3-(trifluoromethyl)phenyl)cyclopropane-1-carboxamido)-N-(2,4-difluoro-5-(2,2,2-trifluoroacetamido)phenyl)-2,3-difluorobenzamide] | 50 to 100% | 50 to 100%
CC(=O)Nc1cc(NC(=O)c2cc(NC(=O)[C@H]3[C@H](c4ccc(Cl)c(Cl)c4)C3(Cl)Cl)cc(F)c2F)c(F)cc1F [F1585, N-(5-Acetamido-2,4-difluorophenyl)-5-((1R,3R)-2,2-dichloro-3-(3,4-dichlorophenyl)cyclopropane-1-carboxamido)-2,3-difluorobenzamide] | 50 to 100% | 50 to 100%
O=C(Nc1cc(NC(=O)C(F)F)c(F)cc1F)c1cc(NC(=O)[C@H]2[C@H](c3ccc(F)c(C(F)(F)F)c3)C2(Cl)Cl)cc(F)c1F [F1586, 5-((1R,3R)-2,2-Dichloro-3-(4-fluoro-3-(trifluoromethyl)phenyl)cyclopropane-1-carboxamido)-N-(5-(2,2-difluoroacetamido)-2,4-difluorophenyl)-2,3-difluorobenzamide] | 50 to 100% | 50 to 100%
CC(=O)Nc1cc(NC(=O)c2cc(NC(=O)[C@H]3[C@H](c4ccc(F)c(C(F)(F)F)c4)C3(Cl)Cl)cc(F)c2F)c(F)cc1F [F1587, N-(5-Acetamido-2,4-difluorophenyl)-5-((1R,3R)-2,2-dichloro-3-(4-fluoro-3-(trifluoromethyl)phenyl)cyclopropane-1-carboxamido)-2,3-difluorobenzamide] | 50 to 100% | 50 to 100%
O=C(Nc1c(F)ccc(NC(=O)C(F)(F)F)c1F)c1cc(NC(=O)[C@H]2[C@H](c3cc(Cl)c(Cl)c(Cl)c3)C2(Cl)Cl)cc(F)c1F [F1588, 5-((1R,3R)-2,2-Dichloro-3-(3,4,5-trichlorophenyl)cyclopropane-1-carboxamido)-N-(2,6-difluoro-3-(2,2,2-trifluoroacetamido)phenyl)-2,3-difluorobenzamide] | 50 to 100% | 50 to 100%
O=C(Nc1c(F)ccc(NC(=O)C(F)F)c1F)c1cc(NC(=O)[C@H]2[C@H](c3cc(Cl)c(Cl)c(Cl)c3)C2(Cl)Cl)cc(F)c1F [F1589, 5-((1R,3R)-2,2-Dichloro-3-(3,4,5-trichlorophenyl)cyclopropane-1-carboxamido)-N-(3-(2,2-difluoroacetamido)-2,6-difluorophenyl)-2,3-difluorobenzamide] | 50 to 100% | 50 to 100%
CC(=O)Nc1ccc(F)c(NC(=O)c2cc(NC(=O)[C@H]3[C@H](c4cc(Cl)c(Cl)c(Cl)c4)C3(Cl)Cl)cc(F)c2F)c1F [F1590, N-(3-Acetamido-2,6-difluorophenyl)-5-((1R,3R)-2,2-dichloro-3-(3,4,5-trichlorophenyl)cyclopropane-1-carboxamido)-2,3-difluorobenzamide] | 50 to 100% | 50 to 100%
N#CC1(C(=O)Nc2c(F)ccc(NC(=O)c3cc(NC(=O)[C@H]4[C@H](c5ccc(Cl)c(Cl)c5)C4(Cl)Cl)ccc3Cl)c2F)CC1 [F1609, 2-Chloro-N-(3-(1-cyanocyclopropane-1-carboxamido)-2,4-difluorophenyl)-5-((1R,3R)-2,2-dichloro-3-(3,4-dichlorophenyl)cyclopropane-1-carboxamido)benzamide] | 50 to 100% | 50 to 100%
O=C(Nc1ccc(F)c(NC(=O)C2CCCO2)c1F)c1cc(NC(=O)[C@H]2[C@H](c3ccc(Cl)c(Cl)c3)C2(Cl)Cl)ccc1Cl (stereo partly drawn) [F1611, N-(3-(2-Chloro-5-((1R,3R)-2,2-dichloro-3-(3,4-dichlorophenyl)cyclopropane-1-carboxamido)benzamido)-2,6-difluorophenyl)tetrahydrofuran-2-carboxamide] | 50 to 100% | 50 to 100%
CCOC(C)C(=O)N(C)c1c(F)ccc(NC(=O)c2cc(NC(=O)[C@H]3[C@H](c4ccc(Cl)c(Cl)c4)C3(Cl)Cl)ccc2Cl)c1F (stereo partly drawn) [F1616, 2-Chloro-5-((1R,3R)-2,2-dichloro-3-(3,4-dichlorophenyl)cyclopropane-1-carboxamido)-N-(3-(2-ethoxy-N-methylpropanamido)-2,4-difluorophenyl)benzamide] | 50 to 100% | 50 to 100%
Nc1c(F)ccc(NC(=O)c2cc(NC(=O)[C@H]3[C@H](c4ccc(Cl)c(C(F)(F)F)c4)C3(Cl)Cl)ccc2Cl)c1F [F1631, N-(3-Amino-2,4-difluorophenyl)-2-chloro-5-((1R,3R)-2,2-dichloro-3-(4-chloro-3-(trifluoromethyl)phenyl)cyclopropane-1-carboxamido)benzamide] | 50 to 100% | 50 to 100%
O=C(Nc1ccc(F)c(NC(=O)C2CCCO2)c1F)c1cc(NC(=O)[C@H]2[C@H](c3cc(Cl)c(Cl)c(Cl)c3)C2(Cl)Cl)ccc1Cl (stereo partly drawn) [F1647, N-(3-(2-Chloro-5-((1R,3R)-2,2-dichloro-3-(3,4,5-trichlorophenyl)cyclopropane-1-carboxamido)benzamido)-2,6-difluorophenyl)tetrahydrofuran-2-carboxamide] | 50 to 100% | 50 to 100%
O=C(Nc1c(F)ccc(NC(=O)c2cc(NC(=O)[C@H]3[C@H](c4cc(Cl)c(Cl)c(Cl)c4)C3(Cl)Cl)ccc2Cl)c1F)c1ccco1 [F1648, N-(3-(2-Chloro-5-((1R,3R)-2,2-dichloro-3-(3,4,5-trichlorophenyl)cyclopropane-1-carboxamido)benzamido)-2,6-difluorophenyl)furan-2-carboxamide] | 50 to 100% | 50 to 100%
O=C1CC(C(=O)Nc2c(F)ccc(NC(=O)c3cc(NC(=O)[C@H]4[C@H](c5cc(Cl)c(Cl)c(Cl)c5)C4(Cl)Cl)ccc3Cl)c2F)C1 [F1649, 2-Chloro-5-((1R,3R)-2,2-dichloro-3-(3,4,5-trichlorophenyl)cyclopropane-1-carboxamido)-N-(2,4-difluoro-3-(3-oxocyclobutane-1-carboxamido)phenyl)benzamide] | 50 to 100% | 50 to 100%
